Laboratory results taken from patent US8232274B2, “Pyridazinone derivatives useful as glucan synthase inhibitors” (Albany Molecular Research, Inc., priority 2007, dated 2012).

Assays:
glucan synthase [1] = target: T1, glucan synthase (Candida albicans, UniProt O13428); assay: β(1,3) glucan synthase assay, C. albicans BWP17 membrane preparation (IC50); format: biochemical; conditions: in vitro fungal enzyme activity assay, read-out: IC50 (μg/mL) Candida albicans (converted)
T1 construct: glucan synthase sources (2 μL permeabilized PM503 cells, or 3 μL membrane preparations from either PM503, BWP17, or ND158); endogenous in cells; host or cells: C. albicans strain BWP17, 100,000 g membrane fraction
T1 sequence (O13428 1-1897): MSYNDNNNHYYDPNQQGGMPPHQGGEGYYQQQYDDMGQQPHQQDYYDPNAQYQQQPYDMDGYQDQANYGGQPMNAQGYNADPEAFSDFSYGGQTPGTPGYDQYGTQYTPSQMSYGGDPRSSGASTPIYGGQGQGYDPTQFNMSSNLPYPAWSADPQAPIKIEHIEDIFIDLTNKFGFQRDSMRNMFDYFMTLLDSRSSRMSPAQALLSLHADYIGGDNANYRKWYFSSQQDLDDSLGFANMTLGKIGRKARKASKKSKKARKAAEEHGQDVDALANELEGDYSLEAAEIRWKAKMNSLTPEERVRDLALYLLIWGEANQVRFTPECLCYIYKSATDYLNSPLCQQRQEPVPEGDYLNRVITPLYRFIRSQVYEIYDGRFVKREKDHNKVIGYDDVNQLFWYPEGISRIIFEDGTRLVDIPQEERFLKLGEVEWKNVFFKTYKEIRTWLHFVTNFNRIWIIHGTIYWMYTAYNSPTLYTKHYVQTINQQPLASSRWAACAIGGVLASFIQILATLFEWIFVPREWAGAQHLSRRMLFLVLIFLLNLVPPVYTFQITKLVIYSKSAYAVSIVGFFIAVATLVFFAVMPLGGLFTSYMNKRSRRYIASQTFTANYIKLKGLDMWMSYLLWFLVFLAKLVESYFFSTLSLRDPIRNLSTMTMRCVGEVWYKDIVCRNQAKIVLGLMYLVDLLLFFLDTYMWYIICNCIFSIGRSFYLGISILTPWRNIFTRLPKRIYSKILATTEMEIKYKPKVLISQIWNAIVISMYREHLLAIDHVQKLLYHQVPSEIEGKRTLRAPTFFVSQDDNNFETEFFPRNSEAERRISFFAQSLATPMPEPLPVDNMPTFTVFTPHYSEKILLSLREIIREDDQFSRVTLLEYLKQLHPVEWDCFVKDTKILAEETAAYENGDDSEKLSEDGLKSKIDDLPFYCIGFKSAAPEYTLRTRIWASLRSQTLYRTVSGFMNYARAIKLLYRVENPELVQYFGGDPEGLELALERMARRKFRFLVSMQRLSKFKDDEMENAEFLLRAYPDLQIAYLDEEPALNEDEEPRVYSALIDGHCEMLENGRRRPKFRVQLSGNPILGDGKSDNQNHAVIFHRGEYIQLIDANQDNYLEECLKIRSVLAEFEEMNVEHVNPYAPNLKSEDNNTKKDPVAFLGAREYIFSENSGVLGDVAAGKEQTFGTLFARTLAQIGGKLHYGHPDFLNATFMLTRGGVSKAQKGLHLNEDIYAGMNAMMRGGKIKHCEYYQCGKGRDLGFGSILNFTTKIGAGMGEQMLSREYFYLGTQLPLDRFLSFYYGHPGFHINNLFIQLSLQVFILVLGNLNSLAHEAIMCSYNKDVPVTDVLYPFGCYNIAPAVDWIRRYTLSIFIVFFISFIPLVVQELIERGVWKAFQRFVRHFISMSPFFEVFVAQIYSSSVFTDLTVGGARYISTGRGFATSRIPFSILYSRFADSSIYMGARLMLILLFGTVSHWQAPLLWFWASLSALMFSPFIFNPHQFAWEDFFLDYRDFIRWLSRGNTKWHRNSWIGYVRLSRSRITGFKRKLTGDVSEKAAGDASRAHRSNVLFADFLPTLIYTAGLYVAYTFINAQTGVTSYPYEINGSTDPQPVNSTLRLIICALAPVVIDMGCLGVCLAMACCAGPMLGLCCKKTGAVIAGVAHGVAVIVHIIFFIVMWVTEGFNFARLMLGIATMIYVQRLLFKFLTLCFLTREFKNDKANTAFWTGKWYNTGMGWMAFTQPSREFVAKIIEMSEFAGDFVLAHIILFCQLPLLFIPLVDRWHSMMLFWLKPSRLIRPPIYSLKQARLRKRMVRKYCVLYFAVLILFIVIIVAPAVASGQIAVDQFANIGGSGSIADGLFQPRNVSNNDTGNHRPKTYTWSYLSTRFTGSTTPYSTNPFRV
T1 sequence (O42825 1-195 partner limits assumed): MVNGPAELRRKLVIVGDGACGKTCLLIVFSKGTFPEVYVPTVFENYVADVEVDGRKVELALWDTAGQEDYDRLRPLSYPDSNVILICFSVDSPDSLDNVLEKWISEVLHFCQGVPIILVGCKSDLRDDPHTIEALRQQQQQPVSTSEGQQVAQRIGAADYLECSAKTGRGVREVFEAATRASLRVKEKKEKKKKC
Experimental: (§1) β(1,3) Glucan Synthase Assay:
(§2) 2. Preparation of Membrane Fraction of Yeast Cells
(§3) The protocol was modified from Douglas et al. (Journal of Bacteriology, 176, 5686-5696, 1994). For the preparation of S. cerevisiae and C. albicans membrane fractions, 1 liter of YPD supplemented with 0.02 mg/mL adenine and 0.08 mg/mL uracil was inoculated with 10 mL starter culture of PM503 (OD600=4) or the C. albicans strain BWP17 (OD600=12) in the same medium and grown at 30° C. until OD600 reached about 1. A. fumigatus (stain ND158) membranes were prepared by first preparing a spore suspension from agar slants by adding 6 mL of sterile saline, 0.1% Tween-20 solution to each slant, and resuspending by pipetting and scraping. The spore suspensions were used to inoculate two 200 mL flasks containing Sabouraud dextrose broth media. Cultures were incubated at 37° C., 250 rpm for ˜8 hrs. All cells, S. cerevisiae, C. albicans or A. fumigatus were harvested by centrifugation at 5,300 g at 4° C. for 40 minutes. After washing with 100 mL of breakage buffer (0.1 M KPi, pH 7.0, 1 mM EDTA, 1 mM DTT), the cell pellet was resuspended in 50 ml ice-cold breakage buffer. The mixture was transferred to a bead-beater chamber packed in ice (BioSpec Products, Bartlesville, Okla.). To each 50 mL sample was added 50 g of acid-washed glass beads ([…], Sigma). Cells were disrupted using 12×20 second pulses with 2 min-cooling intervals. Cell debris was removed by centrifugation at 3,000 g for 20 minutes at 4° C., and the supernatant was collected and centrifuged at 100,000 g for 1 hour at 4° C. to pellet the membrane fraction. The pellet was resuspended in 5 mL of ice-cold breakage buffer containing 25% glycerol, homogenized with a Dounce tissue homogenizer and stored at −80° C. in small aliquots.
(§4) 3. Glucan Synthase Assay and Compound Screening
The assay was performed according to Mo et at (Journal of Biological Chemistry, 269, 31267-31274, 1994) and Taft et al. (The Journal of Antibiotics, 47, 1001-1009, 1994), in a 96-well Optiplate (PerkinElmer). To each well was added 3 μL 10× compound stock (in 100% DMSO), or 3 μL of 30 μg/mL caspofungin in 100% DMSO (as positive control), or 3 μL 100% DMSO (as negative control), followed by the addition of appropriate amount of glucan synthase sources (2 μL permeabilized PM503 cells, or 3 μL membrane preparations from either PM503, BWP17, or ND158). The reaction was initiated by adding 25 μL reaction buffer (0.6 mM UDP-Glucose 0.6 nCi [U-^14C]DUP-Glucose (327 mCi/mmol, Amersham Bioscience), 20 μM GTP-γ-S, 25 mM NaF, 7.5 mg/mL BSA, 8% glycerol in 75 mM Tris-HCl, pH 7.5). The plate was incubated on a shaker for 1.5 hour at room temperature before being quenched with 250 μL 1% TCA (Trichloroacetic Acid). The quenched reaction was mixed by pipetting, and immediately transferred to a 96-well filter plate (Glass fiber B on 0.65 μm hydrophilic durapore membrane, Millipore) pre-wetted with wash buffer (5% TCA, 60 mM NaPPi). The glucan product was retained on the filter membrane by applying vacuum to the plate using a MultiScreen Resist Vacuum Manifold (Millipore). The filter plate was further washed 4 times with 200 μL wash buffer. The plate was dried at 50° C. for 30 minutes. 100 μL of Microscint-0 (PerkinElmer) was added to each well, and plate was counted in a TopCount NXT plate reader (PerkinElmer).
Dose-response curves were plotted from inhibition data generated. IC50 was determined by fitting the CPM versus the Concentration of the test compound plot with the following equation (4-parameter logistic model, ID Business Solutions XLfit 4.2).

glucan synthase [2] = target: T2, glucan synthase (Saccharomyces cerevisiae, UniProt P38631); assay: β(1,3) glucan synthase assay, S. cerevisiae PM503 permeabilized cells or membrane preparation (IC50); format: biochemical
T2 construct: glucan synthase sources (2 μL permeabilized PM503 cells, or 3 μL membrane preparations from either PM503, BWP17, or ND158); endogenous in cells; host or cells: S. cerevisiae strain PM503, permeabilized cells or 100,000 g membrane fraction
T2 sequence (P06780 1-206): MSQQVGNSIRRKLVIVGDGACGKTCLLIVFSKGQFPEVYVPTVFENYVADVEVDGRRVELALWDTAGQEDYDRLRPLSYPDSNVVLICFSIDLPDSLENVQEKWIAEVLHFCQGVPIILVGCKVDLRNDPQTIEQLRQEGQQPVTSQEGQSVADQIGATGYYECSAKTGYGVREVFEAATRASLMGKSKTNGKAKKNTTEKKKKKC
T2 sequence (P38631 whole entry): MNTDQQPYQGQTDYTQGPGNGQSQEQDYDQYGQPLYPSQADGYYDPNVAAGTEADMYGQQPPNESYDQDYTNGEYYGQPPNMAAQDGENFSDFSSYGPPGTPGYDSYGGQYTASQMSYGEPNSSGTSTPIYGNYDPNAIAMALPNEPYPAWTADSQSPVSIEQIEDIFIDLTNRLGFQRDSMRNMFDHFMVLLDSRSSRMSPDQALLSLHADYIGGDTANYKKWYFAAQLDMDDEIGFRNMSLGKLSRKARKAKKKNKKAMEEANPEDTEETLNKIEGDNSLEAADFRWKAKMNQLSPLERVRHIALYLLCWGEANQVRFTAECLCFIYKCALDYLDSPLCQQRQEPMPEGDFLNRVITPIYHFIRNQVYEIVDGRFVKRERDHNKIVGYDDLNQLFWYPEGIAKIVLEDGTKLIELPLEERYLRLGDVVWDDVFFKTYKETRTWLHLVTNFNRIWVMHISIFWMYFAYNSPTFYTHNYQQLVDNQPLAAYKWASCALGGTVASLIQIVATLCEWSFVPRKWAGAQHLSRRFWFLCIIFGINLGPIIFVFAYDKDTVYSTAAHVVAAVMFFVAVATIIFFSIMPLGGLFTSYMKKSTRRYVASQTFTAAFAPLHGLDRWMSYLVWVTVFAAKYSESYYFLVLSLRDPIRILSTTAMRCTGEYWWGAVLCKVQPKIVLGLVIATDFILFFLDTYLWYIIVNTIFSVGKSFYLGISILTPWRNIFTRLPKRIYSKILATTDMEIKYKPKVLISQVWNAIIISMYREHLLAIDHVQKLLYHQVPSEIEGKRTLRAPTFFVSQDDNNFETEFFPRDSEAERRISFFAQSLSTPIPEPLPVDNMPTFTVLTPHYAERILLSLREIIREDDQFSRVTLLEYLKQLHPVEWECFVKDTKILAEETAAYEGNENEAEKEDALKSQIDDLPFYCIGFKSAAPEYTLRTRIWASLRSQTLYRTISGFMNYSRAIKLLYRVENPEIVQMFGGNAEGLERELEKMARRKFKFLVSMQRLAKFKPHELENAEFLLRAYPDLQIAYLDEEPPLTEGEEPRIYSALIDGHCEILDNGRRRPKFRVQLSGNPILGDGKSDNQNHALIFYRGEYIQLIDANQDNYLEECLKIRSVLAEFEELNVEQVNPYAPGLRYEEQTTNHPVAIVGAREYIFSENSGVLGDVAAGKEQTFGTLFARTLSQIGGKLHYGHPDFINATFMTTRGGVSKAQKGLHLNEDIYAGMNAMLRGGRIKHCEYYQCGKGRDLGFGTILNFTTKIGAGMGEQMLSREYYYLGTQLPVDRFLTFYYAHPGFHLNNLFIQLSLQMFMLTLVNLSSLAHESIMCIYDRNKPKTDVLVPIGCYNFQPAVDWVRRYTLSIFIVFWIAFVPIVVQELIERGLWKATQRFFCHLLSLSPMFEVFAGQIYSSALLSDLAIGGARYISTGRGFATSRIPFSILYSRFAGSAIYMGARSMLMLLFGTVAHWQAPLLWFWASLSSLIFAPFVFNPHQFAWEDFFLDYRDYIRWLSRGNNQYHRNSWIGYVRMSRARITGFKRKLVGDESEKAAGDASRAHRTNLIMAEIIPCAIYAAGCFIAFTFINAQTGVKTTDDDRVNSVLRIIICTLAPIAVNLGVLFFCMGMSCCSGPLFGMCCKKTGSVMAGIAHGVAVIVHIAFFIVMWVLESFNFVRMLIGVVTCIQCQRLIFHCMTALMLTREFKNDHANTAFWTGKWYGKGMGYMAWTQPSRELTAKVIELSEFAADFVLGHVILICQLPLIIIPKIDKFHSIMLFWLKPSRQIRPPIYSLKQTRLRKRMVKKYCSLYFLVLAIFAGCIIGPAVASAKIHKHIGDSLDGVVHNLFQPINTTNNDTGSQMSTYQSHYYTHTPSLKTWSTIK
Experimental: as §1
1. Preparation of Permeabilized Saccharomyces cerevisiae Cells.
Permeabilization of yeast cells was performed according to Crotti et al. (Analytical Biochemistry, 292, 8-16, 2001) with some modifications. A 10 ml-starter culture of the S. cerevisiae strain in YPD medium (1% yeast extract, 2% bacto-peptone, 2% dextrose) with OD600=3-4 was used to inoculate 1 liter of YPD. The culture was grown at 30° C. until […]. Cells were collected by centrifugation (5,300 g for 15 min at 4° C.) and resuspended in buffer (40 mM EDTA, 100 mM β-mercaptoethanol) at 1 g of cell pellet/3.5 ml buffer. The cell suspension was shaken for 30 min at 30° C., followed by centrifugation at 12,000 g for 10 min at 4° C. The cell pellet was washed with 5 ml 0.8 M sorbitol and resuspended in 6.8 ml of 2.9 mM citric acid, 11.3 mM dibasic sodium phosphate, 1 mM EDTA, 0.8 M sorbitol, with constant shaking at 30)C for 30 min. After centrifugation at 12,000 g for […] at 4° C., the pellet was resuspended in 31.3 ml 50 mM Tris-HCl, pH 7.0, and incubated on ice for 5 min. The mixture was then centrifuged at 12,000 g for 10 min at 4 AC, and the pellet was resuspended in 1 ml of 50 mM Tris-HCl and 33% glycerol, pH 7.5. The permeabilized cell preparation was stored at […] in aliquots.
as §2, §3, §4
The assay was performed according to Mo et at (Journal of Biological Chemistry, 269, 31267-31274, 1994) and Taft et al. (The Journal of Antibiotics, 47, 1001-1009, 1994), in a 96-well Optiplate (PerkinElmer). To each well was added 3 μL 10× compound stock (in 100% DMSO), or 3 μL of 30 μg/mL caspofungin in 100% DMSO (as positive control), or 3 μL 100% DMSO (as negative control), followed by the addition of appropriate amount of glucan synthase sources (2 μL permeabilized PM503 cells, or 3 μL membrane preparations from either PM503, BWP17, or ND158). The reaction was initiated by adding 25 μL reaction buffer (0.6 mM UDP-Glucose 0.6 nCi [U-^14C]DUP-Glucose (327 mCi/mmol, Amersham Bioscience), 20 μM GTP-γ-S, 25 mM NaF, 7.5 mg/mL BSA, 8% glycerol in 75 mM Tris-HCl, pH 7.5). […]

Structure (SMILES)	IC50 (glucan synthase [1]) [nM]	IC50 (glucan synthase [2]) [nM]
CC1(COc2c(N3CCN(S(=O)(=O)Cc4ccc(C#N)cc4)CC3)cnn(-c3cccc(Cl)c3)c2=O)CC1 [1529Z-56]	108	307
O=c1c2c(cnn1-c1cc(F)cc(F)c1)N1CCN(CC1)S(=O)(=O)/C=C/CCCCCCCCO2 [2022Z]	157	78.6
Nc1ccc(CS(=O)(=O)N2CCN(c3cnn(-c4cc(F)cc(F)c4)c(=O)c3OCC3(CF)CC3)CC2)cc1 [932Z]	231	71
CCCCCCCOc1c(N2CCN(S(=O)(=O)CC)CC2)cnn(-c2ccccc2)c1=O [244Z]	886	201
CC1CCC(Oc2c(N3CCN(S(=O)(=O)Cc4cccc(N)c4)CC3)cnn(-c3ccccc3)c2=O)C1 (stereo not shown) [1529Z-70]	153	134
O=c1c(OCC2(CF)CC2)c(N2CCN(S(=O)(=O)NCc3ccc4ncoc4c3)CC2)cnn1-c1cccc(Cl)c1 [1743Z]	99.5	116
O=C(NCc1ccccc1)N1CCN(c2cnn(-c3cccc(Cl)c3)c(=O)c2OC2CCCC2)CC1 [204Z]	68900	203000
O=c1c(OCC2CC2)c(N2CCN(S(=O)(=O)Cc3ccccc3)CC2)cnn1-c1cccc(Cl)c1 [1529Z-185]	38.8	11.6
CCCCCCCSc1c(N2CCN(S(=O)(=O)Cc3ccccc3)CC2)cnn(-c2ccccc2)c1=O [7Z]	2030	629
O=c1c(OCc2cccc(F)c2)c(N2CCN(S(=O)(=O)Cc3ccccc3)CC2)cnn1-c1cc(F)cc(F)c1 [1529Z-150]	175	70.1
CC1(COc2c(N3CCN(S(=O)(=O)NCc4ccc(F)cc4)CC3)cnn(-c3cc(F)cc(F)c3)c2=O)CC1 [1734Z]	231	106
CC1(COc2c(N3CCN(S(=O)(=O)NCc4ccc(N)cc4)CC3)cnn(-c3cc(F)cc(F)c3)c2=O)CC1 [1634Z]	196	303
COc1ccc(CS(=O)(=O)N2CCN(c3cnn(-c4cc(F)cc(F)c4)c(=O)c3OCC3(C)CC3)CC2)cc1N [1864Z]	86.9	104
CC1(COc2c(N3CCN(S(=O)(=O)Cc4ccccc4)CC3)cnn(-c3cccc(Cl)c3)c2=O)CC1 [1035Z]	56.7	75.6
N#Cc1cccc(-c2c(N3CCN(S(=O)(=O)Cc4ccccc4)CC3)cnn(-c3cc(F)cc(F)c3)c2=O)c1 [82Z]	822	87.7
O=c1c(OC2CCCC2)c(N2CCN(S(=O)(=O)NCc3ccccc3)CC2)cnn1-c1cccc(Cl)c1 [808Z]	91.9	55.1

Structure (SMILES)	IC50 (glucan synthase [1]) [nM]	IC50 (glucan synthase [2]) [nM]
CC1(COc2c(N3CCN(S(=O)(=O)Cc4ccc(N)c(Cl)c4)CC3)cnn(-c3cc(F)cc(F)c3)c2=O)CC1 [Compound 1574Zo]	69	51.7
CC1(COc2c(N3CCN(S(=O)(=O)Cc4cc(N)ccc4F)CC3)cnn(-c3cccc(Cl)c3)c2=O)CC1 [1904Z]	142	107
CC(C)(C)COc1c(N2CCN(S(=O)(=O)Cc3cccc(N)c3)CC2)cnn(-c2cc(F)cc(F)c2)c1=O [1529Z-190]	219	91.3
CNc1cccc(CS(=O)(=O)N2CCN(c3cnn(-c4cccc(Cl)c4)c(=O)c3OCC3(C)CC3)CC2)c1 [1969Z]	215	215
O=c1c(Nc2ccc(F)cc2)c(N2CCN(S(=O)(=O)Cc3ccccc3)CC2)cnn1-c1cccc(Cl)c1 [47Z]	415	45.1
CCOCCOc1c(N2CCN(C(=O)CC)CC2)cnn(-c2cccc(C)c2)c1=O [227Z]	367000	367000
CC1(COc2c(N3CCN(S(=O)(=O)Cc4ccc(I)cc4)CC3)cnn(-c3cccc(Cl)c3)c2=O)CC1 [312*, 2-(3-chlorophenyl)-5-(4-(4-iodobenzylsulfonyl)piperazin-1-yl)-4-((1-methylcyclopropyl)methoxy)pyridazin-3(2H)-one]	107	91.6
CCC1(COc2c(N3CCN(S(=O)(=O)Cc4ccc(N)cc4)CC3)cnn(-c3cc(F)cc(F)c3)c2=O)CC1 [186*]	214	89.3
CC1(COc2c(N3CCN(S(=O)(=O)Cc4cccnc4N)CC3)cnn(-c3cccc(Cl)c3)c2=O)CC1 [Compound 1574Zr]	239	110
CC(Oc1c(N2CCN(S(=O)(=O)Cc3cccc(N)c3)CC2)cnn(-c2cc(F)cc(F)c2)c1=O)C(C)(C)C (stereo not shown) [971Zbb]	2850	588
CC1(COc2c(N3CCN(S(=O)(=O)NCc4ccc(Cl)nc4)CC3)cnn(-c3cccc(Cl)c3)c2=O)CC1 [1675Z]	345	138
Cc1ccc(CNS(=O)(=O)N2CCN(c3cnn(-c4cccc(Cl)c4)c(=O)c3OCC3(C)CC3)CC2)cc1N [1683Z]	122	140
CCCCCCCCCC(=O)N1CCN(c2cnn(-c3ccccc3)c(=O)c2OCCCCCCC)CC1 [232Z]	15600	3810
CC1(COc2c(N3CCN(S(=O)(=O)Cc4ccc(N)cc4)CC3)cnn(-c3cccc(Cl)c3)c2=O)CC1 [745Z]	110	73.5
Cc1ccc(Cc2c(N3CCN(S(=O)(=O)C(C)C)CC3)cnn(-c3cc(F)cc(F)c3)c2=O)cc1 [119Z]	1610	125
CCCCCCSc1c(N2CCN(S(C)(=O)=O)CC2)cnn(-c2cc(F)cc(F)c2)c1=O [11Z]	12700	2470
